Key:
Test in all cases: relative viability (nuclei count vs DMSO), 5 days (fraction); higher = more cells survive
[1] = compound: CCN1C(=O)C2=CC(=C(N=C2N(C1=O)C3CC3)N)C(=O)N
Summary of the method: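 Lung cancer cell lines received five library-drug doses (not always all listed) spaced by √10, pinned on vehicle-anchored 1536-well plates after an overnight stay at 37 °C. Five days later, with no medium change, nuclei were Hoechst-stained, imaged at 4× and counted with MetaXpress. Viability is treated-well nuclei relative to vehicle-well nuclei, as a median across plates. Passing plates had control CV below 25% and at least one doubling.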

[2] = compound: CCN1C(=O)C2=CC(=C(N=C2N(C1=O)C3CC3)N)C(=O)N + COc1cc2c(Oc3ccc(NC(=O)C4(C(=O)Nc5ccc(F)cc5)CC4)cc3F)ccnc2cc1OCCCN1CCOCC1 [Foretinib] (partner 0.25 µM)
Summary of the method: (§1)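 Lung cancer cell lines in 1536-well plates got either a single drug or a fixed anchor-drug dose together with five library-drug doses (not always all listed) in √10 steps, by pin tool, on the day after seeding. Nuclei were counted after 5 days, and relative viability is the treated-to-vehicle ratio of nuclei counts. Values are medians of duplicate plates.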

[3] = compound: CCN1C(=O)C2=CC(=C(N=C2N(C1=O)C3CC3)N)C(=O)N + C[C@@H](Oc1cc(-c2cnn(C3CCNCC3)c2)cnc1N)c1c(Cl)ccc(F)c1Cl [Crizotinib] (partner 1 µM)
Summary of the method: as §1

[4] = compound: CCN1C(=O)C2=CC(=C(N=C2N(C1=O)C3CC3)N)C(=O)N + C[C@]1(O)C[C@@H](c2nc(-c3ccc4ccc(-c5ccccc5)nc4c3)c3c(N)nccn32)C1 [Linsitinib] (partner 1 µM)
Summary of the method: as §1

[5] = compound: CCN1C(=O)C2=CC(=C(N=C2N(C1=O)C3CC3)N)C(=O)N + N=C(N)NC(=N)NCCc1ccccc1 [Phenformin] (partner 250 µM)
Summary of the method: as §1

Cell Line | relative viability ([1]; 0.253 µM) | relative viability ([1]; 0.8 µM) | relative viability ([1]; 2.53 µM) | relative viability ([1]; 8 µM) | relative viability ([2]; first compound 0.253 µM) | relative viability ([2]; first compound 0.8 µM) | relative viability ([2]; first compound 2.53 µM) | relative viability ([2]; first compound 8 µM) | relative viability ([3]; first compound 0.253 µM) | relative viability ([3]; first compound 0.8 µM) | relative viability ([3]; first compound 2.53 µM) | relative viability ([3]; first compound 8 µM) | relative viability ([4]; first compound 0.253 µM) | relative viability ([4]; first compound 0.8 µM) | relative viability ([4]; first compound 2.53 µM) | relative viability ([4]; first compound 8 µM) | relative viability ([5]; first compound 0.253 µM) | relative viability ([5]; first compound 0.8 µM) | relative viability ([5]; first compound 2.53 µM) | relative viability ([5]; first compound 8 µM)
NCI-H2087 | 0.972 | 1.14 | 1.05 | 1.03 | 1.04 | 1.25 | 1.08 | 1.12 | 0.809 | 0.937 | 0.627 | 0.872 | 1.02 | 0.963 | 0.971 | 1.04 | 0.439 | 0.466 | 0.443 | 0.398
H3255 | 0.995 | 0.906 | 1.01 | 0.929 | 0.856 | 0.802 | 0.932 | 1.01 | 0.805 | 0.936 | 0.885 | 0.965 | 0.879 | 0.908 | 0.835 | 1.03 | 0.427 | 0.306 | 0.315 | 0.359
SK-MES-1 | 1.01 | 0.972 | 0.976 | 0.997 | 0.946 | 0.876 | 0.94 | 0.837 | 1.02 | 0.966 | 0.926 | 0.946 | 1.07 | 0.984 | 1.02 | 1.13 | 0.628 | 0.687 | 0.662 | 0.642
NCI-H23 | 0.86 | 0.96 | 0.977 | 0.984 | 0.942 | 1.13 | 1.07 | 1.11 | 0.387 | 0.561 | 0.396 | 0.532 | 0.602 | 0.61 | 0.56 | 0.565 | 0.789 | 0.768 | 0.749 | 0.675
HCC-827 | 1.1 | 1.02 | 1.03 | 1.01 | 0.982 | 0.993 | 0.99 | 1.06 | 0.933 | 0.98 | 0.866 | 0.885 | 0.954 | 0.97 | 0.899 | 0.979 | 0.439 | 0.383 | 0.382 | 0.382
HCC-78 | 0.947 | 0.939 | 1.04 | 0.994 | 0.532 |  | 0.582 | 0.502 | 0.349 | 0.327 | 0.292 | 0.379 | 0.516 | 0.434 | 0.482 | 0.675 | 0.747 |  | 0.75 | 0.685
SK-LU-1 | 1.05 | 1.07 | 1.06 | 1.06 | 0.925 | 0.799 | 0.839 | 1 | 1.11 | 0.749 | 0.805 | 0.931 | 1.02 | 1.14 | 1.23 | 1.06 | 0.538 | 0.587 | 0.614 | 0.561
NCI-H1975 | 1.01 | 0.917 | 0.957 | 0.892 | 1.02 | 0.916 | 0.895 | 0.951 | 0.948 | 0.94 | 0.97 | 0.949 | 0.981 | 0.955 | 0.882 | 1.04 | 0.416 | 0.417 | 0.406 | 0.375
NCI-H1563 | 0.975 | 1 | 0.955 | 0.929 | 0.901 | 0.926 | 0.933 | 1.01 | 0.907 | 0.881 | 0.991 | 0.811 | 1.17 | 1.1 | 1.26 | 1.04 | 0.653 | 0.611 | 0.651 | 0.639
COR-L23 | 1.01 | 0.962 | 1.04 | 1.12 | 0.91 | 1.03 | 1.08 | 0.947 | 0.594 | 0.635 | 0.567 | 0.695 | 0.89 | 0.9 | 0.776 | 1.03 | 0.429 | 0.442 | 0.435 | 0.423
CAL-12T | 1 | 0.964 | 1.02 | 1.02 | 1.09 | 1.18 | 1.09 | 1.01 | 0.549 | 0.595 | 0.702 | 0.783 | 0.792 | 0.773 | 0.721 | 0.776 | 0.565 | 0.61 | 0.49 | 0.547
NCI-H596 | 0.933 | 0.984 | 1.06 | 0.971 | 0.956 | 0.94 | 0.788 | 0.962 | 1.05 | 0.984 | 1.08 | 0.948 | 0.991 | 1.11 | 0.926 | 1.18 | 0.707 | 0.72 | 0.769 | 0.628
NCI-H2126 | 1.02 | 0.989 | 0.972 | 0.963 | 1.34 | 0.76 | 1.09 | 1.12 | 1.03 | 1.02 | 1.01 | 0.977 | 0.741 | 0.745 | 0.656 | 0.718 | 0.553 | 0.512 | 0.522 | 0.506
